Columns and labels:
male beagle dogs = assay: Acute toxicity study, single oral dose in dogs; format: in vivo
Description: Acute toxicity studies were also performed by orally administering a single dose of compound (2) formulated in water to groups of male beagle dogs at doses from about 25 mg-eq/kg to about 150 mg-eq/kg.

rats = assay: Acute toxicity study, single oral dose in rats; format: in vivo
Description: Acute toxicity studies in rats were undertaken to assess the tolerance of a single oral dose of compound (2) formulated in water. […] Complete recovery from hypoactivity, sedation, and anesthesia occurred in all rats within about 8 hours after dose. Doses above about 1552 mg-eq/kg (about 800 mg-eq/kg of propofol) were not tested.

male rats = assay: Multiple dose study in rats (five days, once a day); format: in vivo; conditions: oral gavage once a day for five days, 49 to 97 mg-eq/kg
Description: Multiple dose studies in rats were performed by orally administering compound (2) formulated in water to groups of male rats at doses of 49 mg-eq/kg to 97 mg-eq/kg for a period of five days, by oral gavages administered once a day.

[1] = cited from earlier work
[2] = oral dosing, rats; cited from earlier work
[3] = orally administered as homogeneous liquid suspension, relative to equivalent intravenous dose of propofol; cited from earlier work
[4] = rats, single oral dose about 49 to about 388 mg-eq/kg
[5] = rats, single oral dose about 582 to about 970 mg-eq/kg
[6] = rats, single oral dose about 1164 to about 1552 mg-eq/kg

## CC(C)c1cccc(C(C)C)c1OC(=O)OC[C@H](N)C(=O)O (stereo in doubt) [Compound (2), 2-amino-3-(2,6-diisopropyl-phenoxycarbonyloxy)-propanoic acid]
Male beagle dogs; formulated in water, about 25 to about 150 mg-eq/kg
  tolerance of a single oral dose: well tolerated
Male beagle dogs; single oral dose about 25 to about 150 mg-eq/kg
  sedation or anesthesia: No sedation or anesthesia was observed
rats; all rats, single oral dose
  complete recovery from hypoactivity, sedation, and anesthesia, time after dose: ≤ 8 h
rats; rats, formulated in water, about 49 to about 1552 mg-eq/kg of administered compound
  tolerance of a single oral dose: well tolerated
rats; [4]
  onset of transient hypoactivity after dose: ≤ 30 min
  transient hypoactivity maintained, time post dose: up to 4 hours
rats; [5]
  onset of sedation after dose: ≤ 1.5 h
  sedation lasted, time post dose: up to 4 hours
rats; [6]
  anesthesia lasted, time post dose: up to 2 hours
  onset of anesthesia after dose: ≤ 1 h
Male rats
  adverse effects: No adverse effects were observed
  sedation or anesthesia: No sedation or anesthesia was observed
  tolerance of multiple doses: well tolerated

## CC(C)c1cccc(C(C)C)c1OCOP(=O)(O)O [O-phosphonooxymethyl propofol]
[1]; oral administration
  time to maximum propofol concentration: about 30 minutes
[1]; rats, relative to equivalent intravenous dose of propofol
  propofol oral bioavailability: 22.2%

## CC(C)c1cccc(C(C)C)c1O [propofol, 2,6-diisopropylphenol]
[2]
  administered drug undergoing first pass metabolism: approximately 90%
[3]
  oral bioavailability: less than 5%

Reference: patent publication US20090076141A1, “Use of Propofol Prodrugs for Treating Neuropathic Pain” (XenoPort, Inc., priority 2007, published 2009)
